# Data as given in ChEMBL document CHEMBL4411296, “Design and development of Isatin-triazole hydrazones as potential inhibitors of microtubule affinity-regulating kinase 4 for the therapeutic management of cell proliferation and metastasis” (Eur J Med Chem, 2019).
# Key:
# Type in all cases: functional
# HCC 2998 = assay: Growth inhibition of human HCC2998 cells assessed as cell growth at 10 uM after 48 hrs by sulforhodamine B assay relative to control; settings: HCC 2998, 48 h, read-out: Activity
# NCI-H226 = assay: Growth inhibition of human NCI-H226 cells assessed as cell growth at 10 uM after 48 hrs by sulforhodamine B assay relative to control; settings: NCI-H226, 48 h, read-out: Activity
# UO-31 = assay: Growth inhibition of human UO31 cells assessed as cell growth at 10 uM after 48 hrs by sulforhodamine B assay relative to control; settings: UO-31, 48 h, read-out: Activity
# BT-549 = assay: Growth inhibition of human BT549 cells assessed as cell growth at 10 uM after 48 hrs by sulforhodamine B assay relative to control; settings: BT-549, 48 h, read-out: Activity
# NCI-H322M = assay: Growth inhibition of human NCI-H322M cells assessed as cell growth at 10 uM after 48 hrs by sulforhodamine B assay relative to control; settings: read-out: Activity
# HOP-62 = assay: Growth inhibition of human HOP62 cells assessed as cell growth at 10 uM after 48 hrs by sulforhodamine B assay relative to control; settings: HOP-62, 48 h, read-out: Activity
# DU-145 = assay: Growth inhibition of human DU145 cells assessed as cell growth at 10 uM after 48 hrs by sulforhodamine B assay relative to control; settings: DU-145, 48 h, read-out: Activity
# NCI/ADR-RES = assay: Growth inhibition of human NCI/ADR-RES cells assessed as cell growth at 10 uM after 48 hrs by sulforhodamine B assay relative to control; settings: read-out: Activity
# HT-29 = assay: Growth inhibition of human HT-29 cells assessed as cell growth at 10 uM after 48 hrs by sulforhodamine B assay relative to control; settings: HT-29, 48 h, read-out: Activity
# SNB-19 = assay: Growth inhibition of human SNB19 cells assessed as cell growth at 10 uM after 48 hrs by sulforhodamine B assay relative to control; settings: SNB-19, 48 h, read-out: Activity
# MCF7 = assay: Growth inhibition of human MCF7 cells assessed as cell growth at 10 uM after 48 hrs by sulforhodamine B assay relative to control; settings: MCF7, 48 h, read-out: Activity
# NCI-H23 = assay: Growth inhibition of human NCI-H23 cells assessed as cell growth at 10 uM after 48 hrs by sulforhodamine B assay relative to control; settings: NCI-H23, 48 h, read-out: Activity
# SK-OV-3 = assay: Growth inhibition of human SKOV3 cells assessed as cell growth at 10 uM after 48 hrs by sulforhodamine B assay relative to control; settings: SK-OV-3, 48 h, read-out: Activity
# MDA-MB-468 = assay: Growth inhibition of human MDA-MB-468 cells assessed as cell growth at 10 uM after 48 hrs by sulforhodamine B assay relative to control; settings: MDA-MB-468, 48 h, read-out: Activity
# PC-3 = assay: Growth inhibition of human PC3 cells assessed as cell growth at 10 uM after 48 hrs by sulforhodamine B assay relative to control; settings: PC-3, 48 h, read-out: Activity
# SNB-75 = assay: Growth inhibition of human SNB75 cells assessed as cell growth at 10 uM after 48 hrs by sulforhodamine B assay relative to control; settings: SNB-75, 48 h, read-out: Activity
# COLO 205 = assay: Growth inhibition of human COLO205 cells assessed as cell growth at 10 uM after 48 hrs by sulforhodamine B assay relative to control; settings: COLO 205, 48 h, read-out: Activity
# M14 = assay: Growth inhibition of human M14 cells assessed as cell growth at 10 uM after 48 hrs by sulforhodamine B assay relative to control; settings: M14, 48 h, read-out: Activity
# MDA-MB-231 = assay: Growth inhibition of human MDA-MB-231 cells assessed as cell growth at 10 uM after 48 hrs by sulforhodamine B assay relative to control; settings: MDA-MB-231, 48 h, read-out: Activity
# MOLT-4 = assay: Growth inhibition of human MOLT4 cells assessed as cell growth at 10 uM after 48 hrs by sulforhodamine B assay relative to control; settings: MOLT-4, 48 h, read-out: Activity
# CCRF-CEM = assay: Growth inhibition of human CCRF-CEM cells assessed as cell growth at 10 uM after 48 hrs by sulforhodamine B assay relative to control; settings: read-out: Activity
# NCI-H522 = assay: Growth inhibition of human NCI-H522 cells assessed as cell growth at 10 uM after 48 hrs by sulforhodamine B assay relative to control; settings: NCI-H522, 48 h, read-out: Activity
# TK-10 = assay: Growth inhibition of human TK10 cells assessed as cell growth at 10 uM after 48 hrs by sulforhodamine B assay relative to control; settings: TK-10, 48 h, read-out: Activity
# HOP-92 = assay: Growth inhibition of human HOP92 cells assessed as cell growth at 10 uM after 48 hrs by sulforhodamine B assay relative to control; settings: HOP-92, 48 h, read-out: Activity
# EKVX = assay: Growth inhibition of human EKVX cells assessed as cell growth at 10 uM after 48 hrs by sulforhodamine B assay relative to control; settings: read-out: Activity
# IGROV-1 = assay: Growth inhibition of human IGROV1 cells assessed as cell growth at 10 uM after 48 hrs by sulforhodamine B assay relative to control; settings: IGROV-1, 48 h, read-out: Activity
# 786-0 = assay: Growth inhibition of human 786-0 cells assessed as cell growth at 10 uM after 48 hrs by sulforhodamine B assay relative to control; settings: 786-0, 48 h, read-out: Activity
# ACHN = assay: Growth inhibition of human ACHN cells assessed as cell growth at 10 uM after 48 hrs by sulforhodamine B assay relative to control; settings: read-out: Activity
# RXF 393 = assay: Growth inhibition of human RXF393 cells assessed as cell growth at 10 uM after 48 hrs by sulforhodamine B assay relative to control; settings: RXF 393, 48 h, read-out: Activity
# Hs-578T = assay: Growth inhibition of human Hs 578T cells assessed as cell growth at 10 uM after 48 hrs by sulforhodamine B assay relative to control; settings: read-out: Activity
# SK-MEL-2 = assay: Growth inhibition of human SK-MEL-2 cells assessed as cell growth at 10 uM after 48 hrs by sulforhodamine B assay relative to control; settings: SK-MEL-2, 48 h, read-out: Activity
# SK-MEL-28 = assay: Growth inhibition of human SK-MEL-28 cells assessed as cell growth at 10 uM after 48 hrs by sulforhodamine B assay relative to control; settings: SK-MEL-28, 48 h, read-out: Activity
# T47D = assay: Growth inhibition of human T47D cells assessed as cell growth at 10 uM after 48 hrs by sulforhodamine B assay relative to control; settings: read-out: Activity
# U-251 = assay: Growth inhibition of human U251 cells assessed as cell growth at 10 uM after 48 hrs by sulforhodamine B assay relative to control; settings: U-251, 48 h, read-out: Activity
Structure (SMILES),growth at 10 µM (HCC 2998),growth at 10 µM (NCI-H226),growth at 10 µM (UO-31),growth at 10 µM (BT-549),growth at 10 µM (NCI-H322M),growth at 10 µM (HOP-62),growth at 10 µM (DU-145),growth at 10 µM (NCI/ADR-RES),growth at 10 µM (HT-29),growth at 10 µM (SNB-19),growth at 10 µM (MCF7),growth at 10 µM (NCI-H23),growth at 10 µM (SK-OV-3),growth at 10 µM (MDA-MB-468),growth at 10 µM (PC-3),growth at 10 µM (SNB-75),growth at 10 µM (COLO 205),growth at 10 µM (M14),growth at 10 µM (MDA-MB-231),growth at 10 µM (MOLT-4),other results
COc1ccc(Cn2cc(C(=O)N/N=C3/C(=O)Nc4c(F)cccc43)nn2)cc1,102%,91.9%,77%,105%,97.5%,98.4%,102%,96.9%,86.5%,94.2%,94.1%,90.1%,102%,89.6%,83.3%,90.1%,95%,101%,96.3%,96.5%,growth at 10 µM (CCRF-CEM): 90.2%; growth at 10 µM (NCI-H522): 88.6%; growth at 10 µM (TK-10): 96%; growth at 10 µM (HOP-92): 83.8%; growth at 10 µM (EKVX): 107%; growth at 10 µM (IGROV-1): 91.1%; growth at 10 µM (786-0): 101%; growth at 10 µM (ACHN): 86.4%; growth at 10 µM (RXF 393): 86.3%; growth at 10 µM (Hs-578T): 101%; growth at 10 µM (SK-MEL-2): 93.3%; growth at 10 µM (SK-MEL-28): 104%; growth at 10 µM (T47D): 66.8%; growth at 10 µM (U-251): 94.6%
COc1ccc(Cn2cc(C(=O)N/N=C3/C(=O)Nc4ccc(C)cc43)nn2)cc1,99.9%,93%,95%,112%,102%,112%,96%,100%,87.1%,98%,89.2%,104%,113%,99.2%,97.3%,110%,107%,109%,110%,87.8%,growth at 10 µM (CCRF-CEM): 98.1%; growth at 10 µM (NCI-H522): 83.6%; growth at 10 µM (TK-10): 94.6%; growth at 10 µM (HOP-92): 121%; growth at 10 µM (EKVX): 108%; growth at 10 µM (IGROV-1): 109%; growth at 10 µM (786-0): 96.3%; growth at 10 µM (ACHN): 111%; growth at 10 µM (RXF 393): 117%; growth at 10 µM (Hs-578T): 106%; growth at 10 µM (SK-MEL-2): 92.9%; growth at 10 µM (SK-MEL-28): 111%; growth at 10 µM (T47D): 104%; growth at 10 µM (U-251): 105%
